# In PubChem BioAssay AID2060499 (Molecular Pharmacology Branch, DTP, NCI, 2025):
# System: 777334-354-R2-J4-PDC tumor spheroids with HUVEC/MSC, viability
# Experiment: Anticancer human tumor 777334-354-R2-J4-PDC patient-derived pancreatic adenocarcinoma cell line growth inhibition [GQUAD]
# Conditions: for IC50: curve of first compound; for viability, T/C: stronger effect = lower value
# Outline: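 Multi-cell-type spheroids of tumor cells with HUVEC and mesenchymal stem cells, treated with drug combinations. Concentrations descend in half-log steps from near clinical Cmax, or from 10 microM where Cmax is unknown; viability read-out.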
# 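Also: spheroids exposed to compounds for 7 days before readout.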
smiles,measurement,setting,value
CC[C@@]1(O)C(=O)OCc2c1cc1n(c2=O)Cc2cc3c(CN(C)C)c(O)ccc3nc2-1 + Cc1cnc(CNC(=O)c2c(=O)c3ccc(N4CCCN(C)CC4)nc3n3c2sc2ccccc23)cn1,IC50,second compound 0.0316 µM,172 nM
same,IC50,second compound 0.1 µM,241 nM
same,IC50,second compound 0.316 µM,222 nM
same,IC50,second compound 1 µM,233 nM
same,IC50,second compound 3.16 µM,225 nM
same,IC50,second compound 10 µM,78.7 nM
same,"viability, T/C","second compound 0.0316 µM, first compound 0.000999 µM",90.1%
same,"viability, T/C","second compound 0.0316 µM, first compound 0.00316 µM",79.8%
same,"viability, T/C","second compound 0.0316 µM, first compound 0.00999 µM",95.2%
same,"viability, T/C","second compound 0.0316 µM, first compound 0.0316 µM",80.7%
same,"viability, T/C","second compound 0.0316 µM, first compound 0.0999 µM",59.4%
same,"viability, T/C","second compound 0.0316 µM, first compound 0.316 µM",39.7%
same,"viability, T/C","second compound 0.1 µM, first compound 0.000999 µM",102%
same,"viability, T/C","second compound 0.1 µM, first compound 0.00316 µM",74.7%
same,"viability, T/C","second compound 0.1 µM, first compound 0.00999 µM",83.1%
same,"viability, T/C","second compound 0.1 µM, first compound 0.0316 µM",66.8%
same,"viability, T/C","second compound 0.1 µM, first compound 0.0999 µM",60.8%
same,"viability, T/C","second compound 0.1 µM, first compound 0.316 µM",45%
same,"viability, T/C","second compound 0.316 µM, first compound 0.000999 µM",73.8%
same,"viability, T/C","second compound 0.316 µM, first compound 0.00316 µM",76.3%
same,"viability, T/C","second compound 0.316 µM, first compound 0.00999 µM",76.7%
same,"viability, T/C","second compound 0.316 µM, first compound 0.0316 µM",70.1%
same,"viability, T/C","second compound 0.316 µM, first compound 0.0999 µM",59.3%
same,"viability, T/C","second compound 0.316 µM, first compound 0.316 µM",46%
same,"viability, T/C","second compound 1 µM, first compound 0.000999 µM",64.7%
same,"viability, T/C","second compound 1 µM, first compound 0.00316 µM",74.8%
same,"viability, T/C","second compound 1 µM, first compound 0.00999 µM",76%
same,"viability, T/C","second compound 1 µM, first compound 0.0316 µM",69.5%
same,"viability, T/C","second compound 1 µM, first compound 0.0999 µM",57%
same,"viability, T/C","second compound 1 µM, first compound 0.316 µM",47%
same,"viability, T/C","second compound 3.16 µM, first compound 0.000999 µM",56.8%
same,"viability, T/C","second compound 3.16 µM, first compound 0.00316 µM",67.7%
same,"viability, T/C","second compound 3.16 µM, first compound 0.00999 µM",62.2%
same,"viability, T/C","second compound 3.16 µM, first compound 0.0316 µM",63.3%
same,"viability, T/C","second compound 3.16 µM, first compound 0.0999 µM",54.9%
same,"viability, T/C","second compound 3.16 µM, first compound 0.316 µM",47.4%
same,"viability, T/C","second compound 10 µM, first compound 0.000999 µM",56.1%
same,"viability, T/C","second compound 10 µM, first compound 0.00316 µM",57.9%
same,"viability, T/C","second compound 10 µM, first compound 0.00999 µM",60.2%
same,"viability, T/C","second compound 10 µM, first compound 0.0316 µM",53.2%
same,"viability, T/C","second compound 10 µM, first compound 0.0999 µM",47.8%
same,"viability, T/C","second compound 10 µM, first compound 0.316 µM",38.9%
